Assay results as given in US7141603B2, “Antitumor agents” (The Regents of The University California, priority 1999, dated 2006).

Legend:
[1] = tested on: 8392 (B-cell leukemia/lymphoma) cells; assay: Test A in vitro cytotoxicity, 2 hour exposure, [3H]-thymidine incorporation; type: cell-based; settings: read-out: 2 hour IC50 8392, mean ± 1 standard deviation
Protocol: (§1) To assess cytotoxic effects, various concentrations of compounds of the invention were added to cultures of MV522 (human lung carcinoma cell line), HL60 (myeloid leukemia cells), and 8392 (B-cell leukemia/lymphoma) cells for 48 hours, then cell growth/viability was determined by trypan blue exclusion. As an alternative to 48 hour continuous exposure studies, cells were plated in liquid culture in 96 well plates, exposed to various concentrations of compounds of the invention for 2 hours, pulsed with [^3H]-thymidine for one to two hours and harvested onto filter papers. The filter papers were added to vials containing scintillation fluid and residual radioactivity determined in a beta (scintillation) counter.
(§2) Values are reported as mean±1 standard deviation; units are nanomoles per liter; and NT signifies not tested.

[2] = tested on: HL60 (myeloid leukemia cells); assay: as above; type: cell-based; settings: read-out: 2 hour IC50 HL60, mean ± 1 standard deviation
Protocol: as §1, §2

[3] = tested on: MV522 (human lung carcinoma cell line); assay: as above; type: cell-based; settings: read-out: 2 hour IC50 MV522, mean ± 1 standard deviation
Protocol: as §1, §2

[4] = tested on: MV522 lung carcinoma xenograft; assay: Test B in vivo MV522 lung carcinoma xenograft; settings: for MTD reached in Test B: daily IP for 5 consecutive days, MV522 xenograft mice; for relative tumor weight Wt/Wi Day 17 / relative tumor weight Wt/Wi Day 24 / relative tumor weight Wt/Wi Day 31: i.p. QD×5 on days 10-14, day ten = 1.0, dose: 1 14 mg/kg, 2 35 mg/kg, 13 32 mg/kg, 14 28 mg/kg
Excerpt: Several representative compounds of the invention were chosen for in vivo studies. […] Drug therapy was started 10 days after inoculation on a daily basis via IP route for 5 consecutive days. The animals were monitored for 3 weeks after start of therapy.
BALB/c nu/nu 4-week old female mice weighing 18–22 g were obtained from Simonsen, Inc. (Gilroy, Calif.) and maintained in the athymic mouse colony of the University of California (San Diego, Calif.) under pathogen free conditions using HEPA filter hoods. Animals were provided with sterilized food and water ad libitum in groups of 5 in plastic cages vented with polyester fiber filter covers. Clean, sterilized gowns, glove, face masks, and shoe and hood covers were worn by all personnel handling the animals. All studies were conducted in accordance with guidelines of the NIH “Guide for Care and Use of Animals” and approved by the University Institutional Animal Care and Use Committee (Protocol 3-006-2)
The MV522 lung carcinoma line used for xenograft studies was derived as described by Kelner et al. (Anticancer Res., 15: 867–872; 873–878 (1995)) and maintained in antibiotic-free RPMI 1640 (Mediatech, Herndon, Va.) supplemented with 10% fetal bovine serum and 2 mM glutamine in 37° C. humidified carbon dioxide incubator.
Each animal was earmarked and followed individually throughout the experiments. Mice received s.c. injections of the parental cell line MV522 using 10 million cells/inoculation over the shoulder. Ten days after s.c. implantation of the MV522 cells, when s.c. tumors were approximately 3×3 mm in size, animals received the desired drug and dosage. The effect of the compound on life span was calculated from median survival.
Although MV522 cells kill mice by metastases, primary s.c. tumor growth over the shoulder was monitored starting on the first day of treatment and at weekly intervals thereafter. Tumor size was measured in two perpendicular diameters. Tumor weights were estimated according to the formula w=(width)^2×length/2). Relative weights (RW) were calculated to standardized variability in tumor size among test groups at initiation of treatment using the formula RW=Wt/wi, where Wi is the tumor weight for a given animal at beginning of drug treatment and Wt is tumor weight at a subsequent time. Animals were necropsied, and organs were examined for evidence of metastases.
Comparison of survival curves between groups of animals was by the method of Kaplan and Meier. For comparison of relative tumor weights between multiple groups of animals, ordinary ANOVA followed by Tukey-Kramer multiple Comparison post ANOVA analysis was performed (Kelner et al. (Anticancer Res., 15: 867–872; 873–878 (1995)). Probability values (p) less than 0.05 were considered statistically significant.
Data was collected using eight animals in the control studies and four animals in each compound study. Values represent relative tumor weight or Wt/Wi (day ten by definition is 1.0). Drug was administered i.p. on days 10, 11, 12, 13, and 14 (QD×5 days).

[5] = Tolerated dose / toxicity on administration; settings: chronically administered at 35 mg/kg
Excerpt: As one skilled in the art would recognize, the amount can be varied depending on the method of administration.

solid tumor systems = settings: cited from earlier work
Dunning leukemia = settings: rats with Dunning leukemia; cited from earlier work

Row | Compound | IC50 [2] [µM] | IC50 [3] [µM] | relative tumor weight Wt/Wi Day 17 [4] | relative tumor weight Wt/Wi Day 24 [4] | relative tumor weight Wt/Wi Day 31 [4] | further results
1 | CC(=O)OCC1=CC2=C(C)C3(CC3)C(C)(O)C(=O)C2=C1 (centres unmarked) [Compound 3] | 15.6 | 19.6 | – | – | – | IC50 [1]: 62 µM
2 | COCC1=C(CO)C=C2C(=O)C(C)(O)C3(CC3)C(C)=C21 (centres unmarked) [Compound 8] | > 80 | > 80 | – | – | – | –
3 | CC(=O)OCC1=C(COC(C)=O)C2=C(C)C3(CC3)C(C)(O)C(=O)C2=C1 (centres unmarked) [Compound 5] | 38.4 | – | – | – | – | –
4 | COCC1=CC2=C(C)C3(CC3)C(C)(O)C(=O)C2=C1 (centres unmarked) [Compound 7] | 6 | – | – | – | – | –
5 | CC1=C2C(=CC(CO)=C2CO)C(=O)C(C)(O)C12CC2 (centres unmarked) [Compound 2] | – | 11.3 | 2.1 ± 0.2 | 3.3 ± 0.3 | 4.0 ± 0.9 | MTD reached in Test B [4]: not; toxicity on chronic administration [5]: without toxicity
6 | CC(=O)OCC1=C(CO)C=C2C(=O)C(C)(O)C3(CC3)C(C)=C21 (centres unmarked) [Compound 4] | > 40 | 20.4 | – | – | – | –
7 | CC1=C2C=C(CO)C=C2C(=O)C(C)(O)C12CC2 (centres unmarked) [Compound 1] | – | – | 1.4 ± 0.7 | 7.0 ± 1.3 | 11.8 ± 3.0 | MTD reached in Test B [4]: not; IC50 [1]: 37 µM
8 | CC1=C2C(=CC(C)(C)[C@@H]2O)C(=O)[C@](C)(O)C12CC2 [Illudin M] | – | – | – | – | – | therapeutic index (solid tumor systems): low; life span (Dunning leukemia): significantly increased
9 | COCC1=C(COC)C2=C(C)C3(CC3)C(C)(O)C(=O)C2=C1 (centres unmarked) [Compound 9] | 49.8 | > 50 | – | – | – | –
10 | CC(=O)N[C@@H](CSCC1=C(C)C=C2C(=O)C(C)(O)C3(CC3)C(C)=C21)C(=O)O (some centres unmarked) [Compound 13] | – | 10 | 2.3 ± 0.5 | 4.1 ± 0.8 | 4.7 ± 1.5 | –
11 | CC(=O)N[C@@H](CSCC1=C(C)C=C2C(=O)C(C)(O)C3(CC3)C(C)=C21)C(=O)N[C@H](C)c1ccccc1 (some centres unmarked) [Compound 14] | – | 3.05 | 3.2 ± 0.6 | 4.1 ± 0.8 | 6.0 ± 1.8 | –
